The values that follow come from ChEMBL document CHEMBL3797108, “Design, synthesis and in vitro biological evaluation of a small cyclic peptide as inhibitor of vascular endothelial growth factor binding to neuropilin-1” (Bioorg Med Chem Lett, 2016).

The source made the active and inactive calls. No cut-off for these calls is given here. Positions of bridges follow the written chain, without caps; N, C: chain ends. Residues, ends and D or L forms follow the SMILES beside them.

In series [1] the target is Neuropilin-1 (Rattus norvegicus) (UniProt Q9QWJ9). The experiment in a line: Inhibition of (bt)-VEGF165 binding to purified recombinant rat NRP1/Fc chimera at 0.1 uM measured after overnight incubation by ELISA method.
The target is the same in series [2]. The experiment in a line: Inhibition of (bt)-VEGF165 binding to purified recombinant rat NRP1/Fc chimera at 3 uM measured after overnight incubation by ELISA method.
The target is the same in series [3]. In words: Inhibition of (bt)-VEGF165 binding to purified recombinant rat NRP1/Fc chimera at 1 uM measured after overnight incubation by ELISA method.
The target is the same in series [4]. In words: Inhibition of (bt)-VEGF165 binding to purified recombinant rat NRP1/Fc chimera at 0.01 uM measured after overnight incubation by ELISA method.
The next series has as its target Neuropilin-1 (Rattus norvegicus, UniProt Q9QWJ9). In words: (§1) Inhibition of (bt)-VEGF165 binding to purified recombinant rat NRP1/Fc chimera measured after overnight incubation by ELISA method.
The target in series [5] is Neuropilin-1 (Rattus norvegicus) (UniProt Q9QWJ9). The experiment in a line: Inhibition of (bt)-VEGF165 binding to purified recombinant rat NRP1/Fc chimera at 0.3 uM measured after overnight incubation by ELISA method.
The target is the same in series [6]. In words: Inhibition of (bt)-VEGF165 binding to purified recombinant rat NRP1/Fc chimera at 10 uM measured after overnight incubation by ELISA method.
Series [7] deals with HUVEC. In words: Toxicity against HUVEC assessed as reduction in cell viability at 200 to 1000 uM incubated for 24 hrs by MTS assay. The class given is cell-based. The note with it: human.
Series [8] concerns MDA-MB-231. The experiment in a line: Toxicity against human MDA-MB-231 assessed as reduction in cell viability at 200 to 1000 uM incubated for 24 hrs by MTS assay. Type of series: cell-based. The following applies: mda-mb-231, 24 h.
Series [9] has as its system MDA-MB-231. In words: Toxicity against human MDA-MB-231 assessed as reduction in cell viability at 200 to 1000 uM incubated for 96 hrs by MTS assay. Type of series: cell-based. The following applies: mda-mb-231, 96 h.
Series [10] deals with Neuropilin-1 (Rattus norvegicus) (UniProt Q9QWJ9). The description is as §1.
Series [11] has the same target. The experiment in a line: Inhibition of (bt)-VEGF165 binding to purified recombinant rat NRP1/Fc chimera at 100 uM measured after overnight incubation by ELISA method.
For series [12], the system named is HUVEC. In words: Toxicity against HUVEC assessed as reduction in cell viability at 200 to 1000 uM incubated for 96 hrs by MTS assay. The class given is cell-based. The following applies: human.
The target of series [13] is Neuropilin-1 (Rattus norvegicus) (UniProt Q9QWJ9). In words: Inhibition of (bt)-VEGF165 binding to purified recombinant rat NRP1/Fc chimera measured after overnight incubation by ELISA method relative to A7R.

Turning to H-ATWLPPR-OH, the inhibition in [1] stood at 2.9%; in [2] it was 38.1%; in series [3], 24.4%; in series [5] it was 14.6%; in series [6] it was 61%. In series [4], the inhibition entry was “inactive”. Further, the IC50 on Neuropilin-1 is 5.86 µM.

In the case of `N=C(N)NCCC[C@H](NC(=O)[C@@H]1CCC(=O)NCCCC[C@H](N)C(=O)N2CCC[C@H]2C(=O)N1)C(=O)O` (H-KPER-OH; lactam 1-3), the Activity result in the series on HUVEC [7], with MDA-MB-231 [8], with MDA-MB-231 [9] and in the series on HUVEC [12] was “Non-toxic” in each case. The inhibition was 35.5% in [1]; 86.7% in series [2]; 76.5% in [3]; 3.1% in [4]; “Dose-dependent effect” in series [10]; 100% in series [11]. Besides, the inhibition was found to be 61.7% in series [5] and 94.7% in series [6]. In addition, the IC50 on Neuropilin-1 was 0.18 µM. The Ratio IC50 in series [13] is < 30.
